Data as given in paper PMC4996933, “Shared active site architecture between archaeal PolD and multi-subunit RNA polymerases revealed by X-ray crystallography” (Nature Communications, 2016).

Biological target: T1, PolD DP1 (144-622), proofreading exonuclease subunit (Pyrococcus abyssi, UniProt Q9V2F3)
T1 construct: gene polB; residues 144-622, flexible N-terminal region removed; N-terminal 14-His tag cut with TEV; E. coli BL21(DE3) Rosetta2; di-metal site Fe3+/Zn2+; two copies in the asymmetric unit
T1 sequence (Q9V2F3 141-619): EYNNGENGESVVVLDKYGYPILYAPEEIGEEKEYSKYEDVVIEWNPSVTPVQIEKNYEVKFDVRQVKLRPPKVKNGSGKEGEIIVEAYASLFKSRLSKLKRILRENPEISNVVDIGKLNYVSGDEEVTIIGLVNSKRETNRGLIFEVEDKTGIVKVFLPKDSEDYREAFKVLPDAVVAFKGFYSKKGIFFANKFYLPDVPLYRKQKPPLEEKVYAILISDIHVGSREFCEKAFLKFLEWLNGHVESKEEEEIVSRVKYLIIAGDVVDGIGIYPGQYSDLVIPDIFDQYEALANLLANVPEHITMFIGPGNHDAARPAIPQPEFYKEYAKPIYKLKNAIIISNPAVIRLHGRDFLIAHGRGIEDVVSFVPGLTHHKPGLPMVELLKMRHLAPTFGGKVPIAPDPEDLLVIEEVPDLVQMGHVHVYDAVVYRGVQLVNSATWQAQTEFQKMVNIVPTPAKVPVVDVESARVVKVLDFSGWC
Assay: X-ray crystallography, co-crystallization, […] Å
Assay type: binding
Conditions: 5 mM dAMP, pH 6.7, 4 °C; Fe3+/Zn2+ nuclease active site; calcium acetate in crystallization buffer

With `Nc1ncnc2c1ncn2[C@H]1C[C@H](O)[C@@H](COP(=O)(O)O)O1` [dAMP] the “X-ray crystallography, co-crystallization, 2.5 Å” value was “DP1 was co-crystallized together with deoxy-adenosine monophosphate (dAMP)”.
